Measurements taken from US9333257B2, “FGFR1 antibodies and treatment of cancer” (Agency for Science, Technology and Research, priority 2011, dated 2016).

Tests used:
Format in all cases: cell-based, human
MG63 cells [1] = assay: Cell growth, viable cell count by GUAVA Viacount; conditions: 48 hours; for repression of cell growth: 50 μM
Protocol: The cells were seeded in triplicates at 20,000 cells/cm^2 in 24-well plates, except MDA-MB468 which was plated at 100,000 cells/cm^2. […] 48 hours after treatment, the viable cell numbers were counted using the GUAVA Viacount Program and used to plot the graph (FIG. 6). The ‘starting’ cell numbers which were seeded for the assay were also included. hFOB is the normal cell control for osteosarcoma cells, while MCF10A is the normal cell control for breast cancer cells.
We tested the effectiveness of these reagents to block the growth of MG63 using GUAVA Viacount system.
The effect of these antibodies on the growth of MG63 cells were examined by GUAVA EasyCyte flow cytometry system.
Rabbit IgG and mouse IgG were the vehicle control for IMB-R1 and IMB-R1 mAbs, respectively. The viable cells were counted by GUAVA Viacount system. The statistics was done by Student's t test.

Saos-2 = assay: Cell viability via GUAVA, fold change vs cells plated; conditions: two day treatment
Protocol: (§1) Old media was first removed and 3 ml of fresh media added. IMBR1 and rabbit IgG were added to achieve desired dosage. PD166866 (Sigma-Aldrich, USA) and SU5402 (Merck, Germany) were dissolved in dimethyl sulfoxide (DMSO; Sigma-Aldrich, USA) and added to master mix of media to achieve desired concentration. Additional DMSO was added such that total volume of chemicals added was constant.
(§2) Cells were grown in 24-well plate with 500 μl of media at a seeding density of 20,000 cells/cm^2, except for MDA-MB-468 which were seeded at a density of 100,000 cells/cm^2. Each well of cells were then collected via trypsinization with 200 μl of trypsin-EDTA (Invitrogen, USA) and neutralized with 200 μl of media. 1 μl of GUAVA Viacount Flex dye (Guava Technologies, USA) was added to each well. Quantification of viable cells were performed as per manufacturer's instructions.
(§3) To determine the effect of inhibiting FGFR1 signaling on cell viability in osteosarcoma cells, Saos-2 and hOS were treated with varying concentrations of FGFR tyrosine kinase inhibitors PD166866 (Panek et al., 1998) and SU5402 (Mohammadi et al, 1997). The control groups of respective cell lines were treated with equivalent volume of DMSO, as DMSO is the vehicle for both chemical inhibitors. Cell viability was measured via GUAVA and fold change calculated to compare changes in number of cells after two day treatment and number of cells plated. A fold change greater than one indicated an increase in number of cells while a fold change less than one indicated a decrease in number of cells compared to number of cells plated.
To determine the effect of IMBR1 on cell viability, GUAVA was performed after two day treatment with varying amount of IMBR1 or rabbit IgG as control. Rabbit IgG was used as control as IMBR1 is raised in rabbit. Half maximal inhibitory constant (IC50) was then determined.

hOS = assay: as above; conditions: two day treatment
Protocol: as §1, §2, §3

MG63 cells [2] = assay: FGF2 stimulated MG63 cell growth (GUAVA)
Protocol: MG63 cells were treated with 20 ng/ml FGF2, IMB-R1 (1:250 dilution), or pretreated with IMB-R11 hour before addition of FGF2. Cells without the above treatments were the control. After 2 days, the viable cell numbers were counted using GUAVA system as mentioned before.
Cells were first treated with increasing doses of U0126 for 48 hours. The viable cell numbers were then analysed by GUAVA system. Next, cells were treated with 20 ng/ml FGF2 in the presence or absence of the optimal dose of U0126 determined from the first assay, before the cell counting was performed.

MG63 cells [3] = assay: Annexin V-FITC / PI staining apoptosis assay
Protocol: Thus we treated MG63 with 1:250 dilution of IMB-R1 or equal volume of rabbit IgG for 24 hours and then stained the cells with Annexin V-FITC and Propidium Iodide (PI) (BD Biosciences). Annexin V binds to phosphatidylserine which is only present on the outer layer of cell membrane at the early stage of apoptosis. Therefore positive staining of Annexin V indicates early apoptosis. PI is unable to penetrate the intact cell membrane. Only when the membrane breaks down at the late stage of apoptosis, PI can enter and stain the cell. After staining, the cell population was analyzed by BD FACS Array system. The viable cells were negative of either Annexin V-FITC or PI staining, which was shown in Q3; the early apoptotic cells were positive of Annexin V-FITC but negative of PI staining, which was shown in Q4; the late apoptotic or dead cells were positive of both staining, which was shown in Q2. The percentage of positive cells in each population was plotted in the graphs.
We next examined whether FGF2 regulated cell apoptosis and IMB-R1 blocked its effect. MG63 cells were treated with IMB-R1 (1:250) 1 hour before FGF2 (20 ng/ml). 24 hours later, cells were harvested and stained with Annexin-PI. Thereafter, cells were analysed by flow cytometry (FIG. 11B). […]
Cells were treated with 25 μM U0126 for 24 hours before the apoptosis of the cells was analysed by Annexin-PI staining.

Caspase 3 = Caspase 3 activity assay (Biovision kit) in MG63; conditions: 24 hours
Protocol: We further examined the effect of IMB-R1 on Caspase 3 activity using an assay kit from Biovision. Caspase 3 is activated at the early stage of apoptosis, so it is used as a common marker of apoptosis. Staurosporine, known as the inducer of caspase 3 activity, was used in this assay as the positive control. We first treated MG63 cells with increasing dose of staurosporine for 24 hours to determine the working dose.
We next examined whether FGF2 regulated cell apoptosis and IMB-R1 blocked its effect. MG63 cells were treated with IMB-R1 (1:250) 1 hour before FGF2 (20 ng/ml). 24 hours later, cells were harvested and stained with Annexin-PI. Thereafter, cells were analysed by flow cytometry (FIG. 11B). The percentage of positive cells in each population was plotted in the graphs (FIG. 11C). We further examined the effect of IMB-R1 and FGF2 on Caspase 3 activity using the assay kit from Biovision. Caspase 3 is activated at the early stage of apoptosis, so it is used as a common marker of apoptosis. The dose of reagents and the time point chosen were same to those in Annexin-PI staining assay.

Compound | repression of cell growth (MG63 cells [1]) [%] | fold change of cell number vs cells plated (Saos-2; 10 μM) | fold change of cell number vs cells plated (Saos-2; 100 μM) | fold change of cell number vs cells plated (hOS; 10 μM) | fold change of cell number vs cells plated (hOS; 100 μM) | further results
COc1cc(OC)cc(-c2cc3cnc(N)nc3nc2NC(=O)NC(C)(C)C)c1 [PD166866] | ~50 | 1.7 | 0.4 | 4.2 | 0.7 | 
CCN(CC)CCCCNc1ncc2cc(-c3cc(OC)cc(OC)c3)c(NC(=O)NC(C)(C)C)nc2n1 [PD173074] |  |  |  |  |  | IC50 (MG63 cells [1]; Homo sapiens, MG-63, read-out: concentration able to induce 50% cell growth inhibition): 10 to 25 µM
Cc1c[nH]c(/C=C2\C(=O)Nc3ccccc32)c1CCC(=O)O [SU5402] | ~50 | 2.14 | 0.9 | 5.2 | 0.6 | 
N#CC(=C(/N)Sc1ccccc1N)/C(C#N)=C(\N)Sc1ccccc1N [U0126] |  |  |  |  |  | FGF2 stimulated cell growth (MG63 cells [2]; 25 μM U0126, 20 ng/ml FGF2): completely suppressed; cell number relative to cells without treatment (MG63 cells [1]; 25 μM): ~50%; cell apoptosis (MG63 cells [3]; 25 μM, 24 hours (control 7.49%)): ~100%; viability at 25 µM (MG63 cells [3]; Homo sapiens, MG-63, 24 h, read-out: viable cells): < 1%
CN[C@@H]1C[C@H]2O[C@@](C)([C@@H]1OC)n1c3ccccc3c3c4c(c5c6ccccc6n2c5c31)C(=O)NC4 [staurosporine] |  |  |  |  |  | Caspase 3 activation (Caspase 3; 15 nM): sufficient to activate Caspase 3
FGF2: recombinant human FGF2 (R&D Systems), FGF ligand that activates FGFR1 signalling |  |  |  |  |  | increase of cell proliferation (MG63 cells [2]; 20 ng/ml FGF2, 2 days): 1.9 folds; caspase 3 activity (Caspase 3; FGF2 20 ng/ml alone): slightly decreased
